How the values were obtained:
Trypanosoma brucei = experiment: Antitrypanosomal activity against Trypanosoma brucei bloodstream form assessed as parasite growth inhibition incubated for 72 hrs by resazurin dye based assay; assay type: functional, organism-based; settings: Trypanosoma brucei, 72 h; read-out: EC50
[1] = Cytotoxicity against human THP1 cells by MTT assay; assay type: cell-based, THP-1
[2] = Selectivity index, ratio of CC50 for human THP1 cells to EC50 for Trypanosoma brucei bloodstream form; assay type: toxicity; settings: read-out: Ratio CC50/EC50
hERG (KCNH2) = hERG (KCNH2) (Homo sapiens, UniProt Q12809); experiment: Inhibition of human ERG at 10 uM incubated for 2 hrs by fluorescence polarization assay relative to control
Chain of hERG (KCNH2) (Q12809 whole entry): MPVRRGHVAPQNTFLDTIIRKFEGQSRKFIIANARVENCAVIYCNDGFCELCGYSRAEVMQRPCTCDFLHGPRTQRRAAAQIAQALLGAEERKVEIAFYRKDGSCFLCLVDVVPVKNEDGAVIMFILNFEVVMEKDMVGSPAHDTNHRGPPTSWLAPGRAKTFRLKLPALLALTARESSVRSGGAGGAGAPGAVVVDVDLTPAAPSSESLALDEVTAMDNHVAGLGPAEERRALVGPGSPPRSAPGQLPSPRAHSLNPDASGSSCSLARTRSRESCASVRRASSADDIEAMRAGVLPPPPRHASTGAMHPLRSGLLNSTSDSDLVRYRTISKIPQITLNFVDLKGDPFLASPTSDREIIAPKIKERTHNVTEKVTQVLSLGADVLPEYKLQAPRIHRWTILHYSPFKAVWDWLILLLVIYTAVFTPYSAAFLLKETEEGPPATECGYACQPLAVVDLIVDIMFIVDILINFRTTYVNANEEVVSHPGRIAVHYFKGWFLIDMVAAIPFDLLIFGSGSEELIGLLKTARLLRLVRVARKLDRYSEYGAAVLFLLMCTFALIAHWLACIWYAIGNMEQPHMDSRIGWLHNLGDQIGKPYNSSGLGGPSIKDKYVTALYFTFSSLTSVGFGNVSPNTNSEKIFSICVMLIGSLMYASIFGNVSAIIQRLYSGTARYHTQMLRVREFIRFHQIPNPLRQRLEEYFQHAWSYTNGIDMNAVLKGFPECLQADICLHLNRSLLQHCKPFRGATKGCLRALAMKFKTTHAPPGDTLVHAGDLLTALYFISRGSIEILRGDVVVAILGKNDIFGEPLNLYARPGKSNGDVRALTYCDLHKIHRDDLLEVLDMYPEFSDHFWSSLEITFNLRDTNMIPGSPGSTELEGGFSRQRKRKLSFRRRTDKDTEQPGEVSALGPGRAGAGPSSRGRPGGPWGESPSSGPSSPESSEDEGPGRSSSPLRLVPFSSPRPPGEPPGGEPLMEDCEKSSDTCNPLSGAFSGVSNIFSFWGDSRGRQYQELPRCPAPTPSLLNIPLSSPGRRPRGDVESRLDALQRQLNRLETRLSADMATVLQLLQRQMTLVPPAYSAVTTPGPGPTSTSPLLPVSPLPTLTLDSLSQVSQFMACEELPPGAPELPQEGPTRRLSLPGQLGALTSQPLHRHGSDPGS

CYP1A2 = biological target: T1, CYP1A2 (Homo sapiens, UniProt P05177); experiment: Inhibition of human microsomal CYP1A2 expressed in baculovirus infected insect cells at 10 uM using luciferin-1A2 as substrate preincubated with enzyme/substrate mixture for 30 mins followed by further incubation with NADPH for 30 mins by CYP450 luciferase Glo assay relative to control; assay type: ADME; settings: probe luciferin-1A2
T1 sequence (P05177 whole entry): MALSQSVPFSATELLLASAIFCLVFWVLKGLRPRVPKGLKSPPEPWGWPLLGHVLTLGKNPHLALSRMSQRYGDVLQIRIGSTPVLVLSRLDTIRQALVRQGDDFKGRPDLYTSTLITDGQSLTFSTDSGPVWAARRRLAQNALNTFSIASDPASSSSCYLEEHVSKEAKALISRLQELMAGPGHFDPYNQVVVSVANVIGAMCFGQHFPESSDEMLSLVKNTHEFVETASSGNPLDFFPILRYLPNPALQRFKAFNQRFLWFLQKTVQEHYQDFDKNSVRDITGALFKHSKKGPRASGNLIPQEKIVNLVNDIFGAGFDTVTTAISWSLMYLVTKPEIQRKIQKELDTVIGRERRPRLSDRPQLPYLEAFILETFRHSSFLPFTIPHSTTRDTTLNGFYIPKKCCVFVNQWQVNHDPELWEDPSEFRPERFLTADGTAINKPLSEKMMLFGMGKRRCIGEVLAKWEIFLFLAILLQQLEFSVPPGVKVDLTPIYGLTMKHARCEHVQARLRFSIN

CYP2C9 = CYP2C9 (Homo sapiens, UniProt P11712); experiment: Inhibition of human microsomal CYP2C9 expressed in baculovirus infected insect cells at 10 uM using luciferin-H as substrate preincubated with enzyme/substrate mixture for 30 mins followed by further incubation with NADPH for 30 mins by CYP450 luciferase Glo assay relative to control; assay type: ADME; settings: probe luciferin-H
Chain of CYP2C9 (P11712 whole entry): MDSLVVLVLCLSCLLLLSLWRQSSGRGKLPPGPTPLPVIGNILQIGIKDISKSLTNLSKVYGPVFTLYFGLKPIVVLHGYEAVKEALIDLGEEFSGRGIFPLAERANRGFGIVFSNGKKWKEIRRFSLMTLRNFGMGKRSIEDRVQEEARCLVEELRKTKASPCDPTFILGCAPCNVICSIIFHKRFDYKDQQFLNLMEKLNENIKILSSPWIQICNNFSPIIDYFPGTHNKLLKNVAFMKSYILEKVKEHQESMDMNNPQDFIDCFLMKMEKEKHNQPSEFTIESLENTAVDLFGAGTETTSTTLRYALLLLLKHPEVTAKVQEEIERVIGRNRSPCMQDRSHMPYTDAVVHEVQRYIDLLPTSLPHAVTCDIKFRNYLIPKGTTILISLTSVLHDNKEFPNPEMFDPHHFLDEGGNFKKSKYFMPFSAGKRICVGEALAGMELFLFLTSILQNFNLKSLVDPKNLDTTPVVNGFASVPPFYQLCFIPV

CYP2C19 = CYP2C19 (Homo sapiens, UniProt P33261); experiment: Inhibition of human microsomal CYP2C19 expressed in baculovirus infected insect cells at 10 uM using luciferin-H EGE as substrate preincubated with enzyme/substrate mixture for 30 mins followed by further incubation with NADPH for 30 mins by CYP450 luciferase Glo assay relative to control; assay type: ADME; settings: probe luciferin-H EGE
Chain of CYP2C19 (P33261 whole entry): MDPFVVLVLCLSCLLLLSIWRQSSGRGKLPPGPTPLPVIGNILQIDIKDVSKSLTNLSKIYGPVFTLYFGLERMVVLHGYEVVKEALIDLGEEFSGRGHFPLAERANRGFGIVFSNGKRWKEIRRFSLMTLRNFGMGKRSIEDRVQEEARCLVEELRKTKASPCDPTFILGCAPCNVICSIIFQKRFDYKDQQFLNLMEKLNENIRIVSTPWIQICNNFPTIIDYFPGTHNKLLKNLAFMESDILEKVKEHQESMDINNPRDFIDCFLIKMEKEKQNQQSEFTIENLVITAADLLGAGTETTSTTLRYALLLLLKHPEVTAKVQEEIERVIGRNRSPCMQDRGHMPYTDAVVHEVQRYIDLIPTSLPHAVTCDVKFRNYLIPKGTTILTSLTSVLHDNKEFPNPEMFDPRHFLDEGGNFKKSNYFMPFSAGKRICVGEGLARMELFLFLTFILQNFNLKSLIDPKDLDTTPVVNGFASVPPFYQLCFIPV

CYP2D6 = CYP2D6 (Homo sapiens, UniProt P10635); experiment: Inhibition of human microsomal CYP2D6 expressed in baculovirus infected insect cells at 10 uM using luciferin-ME as substrate preincubated with enzyme/substrate mixture for 30 mins followed by further incubation with NADPH for 30 mins by CYP450 luciferase Glo assay relative to control; assay type: ADME; settings: probe luciferin-ME
Chain of CYP2D6 (P10635 whole entry): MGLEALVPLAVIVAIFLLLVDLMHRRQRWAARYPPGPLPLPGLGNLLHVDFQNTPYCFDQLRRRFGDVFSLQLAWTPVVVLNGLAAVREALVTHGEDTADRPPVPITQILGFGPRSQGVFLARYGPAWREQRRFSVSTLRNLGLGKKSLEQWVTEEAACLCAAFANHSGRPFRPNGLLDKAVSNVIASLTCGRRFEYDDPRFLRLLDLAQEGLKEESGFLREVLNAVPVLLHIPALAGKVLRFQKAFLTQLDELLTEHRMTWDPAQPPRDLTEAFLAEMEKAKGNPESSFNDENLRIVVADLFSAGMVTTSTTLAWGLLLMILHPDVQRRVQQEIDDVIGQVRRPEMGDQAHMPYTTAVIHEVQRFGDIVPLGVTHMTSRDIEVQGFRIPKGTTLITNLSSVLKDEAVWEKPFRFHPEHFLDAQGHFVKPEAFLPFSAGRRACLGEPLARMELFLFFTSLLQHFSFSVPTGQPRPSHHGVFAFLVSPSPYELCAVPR

CYP3A4 = CYP3A4 (Homo sapiens, UniProt P08684); experiment: Inhibition of human microsomal CYP3A4 expressed in baculovirus infected insect cells at 10 uM using luciferin-IPA as substrate preincubated with enzyme/substrate mixture for 30 mins followed by further incubation with NADPH for 30 mins by CYP450 luciferase Glo assay relative to control; assay type: ADME; settings: probe luciferin-IPA
Chain of CYP3A4 (P08684 whole entry): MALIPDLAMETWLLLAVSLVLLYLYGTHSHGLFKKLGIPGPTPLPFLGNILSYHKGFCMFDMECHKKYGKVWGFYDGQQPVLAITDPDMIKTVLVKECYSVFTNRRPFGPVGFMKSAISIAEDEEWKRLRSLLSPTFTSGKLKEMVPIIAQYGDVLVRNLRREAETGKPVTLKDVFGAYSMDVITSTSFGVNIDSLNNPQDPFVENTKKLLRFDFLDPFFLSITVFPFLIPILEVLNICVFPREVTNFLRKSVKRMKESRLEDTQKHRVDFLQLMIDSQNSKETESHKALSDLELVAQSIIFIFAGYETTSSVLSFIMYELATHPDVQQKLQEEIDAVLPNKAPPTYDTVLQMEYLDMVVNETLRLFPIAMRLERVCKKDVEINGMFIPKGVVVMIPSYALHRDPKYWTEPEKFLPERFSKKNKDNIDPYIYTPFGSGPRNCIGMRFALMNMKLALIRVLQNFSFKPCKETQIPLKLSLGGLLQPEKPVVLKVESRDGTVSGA

[3] = Cytotoxicity against human A549 cells assessed as cell growth at […] incubated for 48 hrs by Celltiter-Glo luminescence assay relative to control; assay type: cell-based; design: dose or concentration left out as unconfirmed; settings: read-out: Activity
786-0 = experiment: Mitochondrial toxicity in human 786-0 cells at 10 uM incubated with compound for 6 hrs followed by incubation with MitoTracker Red chloromethyl-X-rosamine dye for 45 mins by imaging analysis; assay type: cell-based; settings: 786-0, 6 h
Leishmania infantum = experiment: Antileishmanial activity against luciferase expressing intracellular amastigote stage of Leishmania infantum infected in human THP1 cells assessed as parasite growth inhibition measured after 48 to 72 hrs by steady-glo luciferase assay; assay type: functional, organism-based; settings: Leishmania infantum, THP-1; read-out: EC50
[4] = Selectivity index, ratio of CC50 for human THP1 cells to EC50 for luciferase expressing intracellular amastigote stage of Leishmania infantum infected in human THP1 cells; assay type: toxicity, cell-based; settings: read-out: Ratio CC50/EC50

Row | SMILES | EC50 (Trypanosoma brucei) | CC50 [1] | selectivity ratio [2] | inhibition at 2 h, 10 µM (hERG (KCNH2)) | inhibition at 0.5 h, 10 µM (CYP1A2) | inhibition at 0.5 h, 10 µM (CYP2C9) | inhibition at 0.5 h, 10 µM (CYP2C19) | inhibition at 0.5 h, 10 µM (CYP2D6) | inhibition at 0.5 h, 10 µM (CYP3A4) | viability at 48 h [3] | Activity (786-0) | EC50 (Leishmania infantum) | selectivity ratio [4]
1 | O=c1c(O)c(-c2c[nH]c3ccccc23)oc2ccc(O)cc12 | 3.1 µM | 50 to 100 µM | 16 | 53.2% | 101% | 40.2% | 47.9% | -0.42% | 18.7% | 5.87% | 17.38% | – | –
2 | COc1ccc2oc(-c3cccc(-c4ccc5c(c4)OCO5)c3)c(O)c(=O)c2c1 | 3.9 µM | 25 to 50 µM | 6 | 0.34% | 61.8% | 25.8% | 24.5% | 21.9% | 44.6% | 30.5% | -1.63% | – | –
3 | COc1cccc2oc(-c3cc(C)cs3)c(O)c(=O)c12 | 3.4 µM | 12.5 to 25 µM | 4 | -7.47% | 106% | 53.5% | 19.2% | 21.2% | 24.5% | 25.3% | -7.63% | – | –
4 | COc1ccc2oc(-c3c[nH]c4ccccc34)c(O)c(=O)c2c1 | 1.4 µM | 12.5 to 25 µM | 8 | 41.2% | 101% | 28.8% | 32.6% | -8% | 11% | 20.9% | -12.53% | – | –
5 | Cc1csc(-c2oc3ccc(C)cc3c(=O)c2O)c1 | 2.8 µM | > 100 µM | 36 | 13.2% | 98.8% | 35.1% | 26.2% | 25.3% | 23.5% | 15.3% | -13.79% | – | –
6 | CCCCC(=O)Oc1c(-c2csc3ccccc23)oc2ccc(OC)cc2c1=O | 1.3 µM | 12.5 to 25 µM | – | 1.12% | 83.3% | 48.3% | 33.9% | 29.3% | 61.8% | 12.4% | 0.75% | 2.4 µM | 5
7 | COc1ccc2oc(-c3cc(C)cs3)c(O)c(=O)c2c1 | 5.7 µM | 25 to 50 µM | 4 | 6.55% | 94.8% | 29.2% | 20.9% | 30.6% | 4.51% | 98.8% | -5.29% | – | –
8 | COc1ccc2oc(-c3cccc(-c4ccc(OC)c(OC)c4)c3)c(O)c(=O)c2c1 | 3 µM | 25 to 50 µM | 8 | -14.3% | 83.1% | 40.1% | 22% | 40.6% | 52.5% | 19.5% | -9.66% | – | –
9 | COc1ccc2c(=O)c(O)c(-c3ccc4c(c3)OCO4)oc2c1 | 0.4 µM | > 100 µM | 250 | 9.49% | 101% | 72.7% | 80.3% | 105% | 55.5% | 43.2% | 6.41% | – | –

Reference: ChEMBL document CHEMBL4311972, “Discovery of a benzothiophene-flavonol halting miltefosine and antimonial drug resistance in Leishmania parasites through the application of medicinal chemistry, screening and genomics” (Eur J Med Chem, 2019)
